According to patent publication US11299478B2, “2-cyanopyrimidin-4-yl carbamate or urea derivative or salt thereof, and pharmaceutical composition including same” (HANLIM PHARMACEUTICAL CO., LTD., priority 2018, dated 2022):

Tests used:
Assay type in all cases: biochemical
cathepsin B = cathepsin B (Homo sapiens, UniProt P07858); experiment: Inhibitory activity assay against cathepsin B (enzyme assay); details: Z-Arg-Arg-AMC 40 μM, enzyme 1 nM, pH 6.0, 90 minutes
Description: In order to measure the enzyme activity of cathepsin B, a buffer solution (pH 6.0) consisting of 50 mM MES, 5 mM DTT, 2.5 mM EDTA, 0.005% Polysorbate 20, and 10% DMSO was prepared. The substrate, the test material, and the enzyme were mixed in the buffer solution in a predetermined concentration. The Z-Arg-Arg-AMC substrate was used in the final concentration of 40 μM. The test material was used in the final concentrations of 10.0 μM, 3.33 μM, 1.11 μM, 0.370 μM, 0.123 μM, 0.0412 μM, 0.0137 μM, 0.00457 μM, 0.00152 μM, and 0.000508 μM, respectively. The cathepsin B enzyme was used in the final concentration of 1 nM. The final volume of the enzyme reaction solution was 10 μL. After reacting the mixture of substrate, test material, and enzyme for 90 minutes, the enzyme activity was measured with the EnVision (Perkin Elmer) microplate reader at an absorption wavelength of 340 nm and an emission wavelength of 460 nm. IC50 values were determined using 4-parameter logistic curve fit program of GraphPad Prism.

cathepsin K = molecular target: T1, cathepsin K (Homo sapiens, UniProt P43235); experiment: Inhibitory activity assay against cathepsin K (enzyme assay); details: Z-Phe-Arg-AMC 10 μM, enzyme 1 nM, pH 5.5, 30 minutes
T1 sequence (P43235 115-329): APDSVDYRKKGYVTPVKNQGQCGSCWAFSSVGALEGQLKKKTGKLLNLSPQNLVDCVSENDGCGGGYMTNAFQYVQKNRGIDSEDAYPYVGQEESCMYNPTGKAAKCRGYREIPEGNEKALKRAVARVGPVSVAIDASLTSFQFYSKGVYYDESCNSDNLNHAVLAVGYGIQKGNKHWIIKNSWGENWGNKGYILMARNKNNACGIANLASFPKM
Description: In order to measure the enzyme activity of cathepsin K, a buffer solution (pH 5.5) consisting of 50 mM 2-(N-morpholino)ethanesulfonic acid (MES), 2 mM dithiothreitol (DTT), 2.5 mM ethylenediaminetetraacetic acid (EDTA), 0.01% Triton X-100, and 10% dimethyl sulfoxide (DMSO) was prepared. The substrate, the test material, and the enzyme were mixed in the buffer solution in a predetermined concentration. The Z-Phe-Arg-AMC substrate was used in the final concentration of 10 μM. The test material was used in the final concentrations of 10.0 μM, 3.33 μM, 1.11 μM, 0.370 μM, 0.123 μM, 0.0412 μM, 0.0137 μM, 0.00457 μM, 0.00152 μM, and 0.000508 μM, respectively. The cathepsin K enzyme was used in the final concentration of 1 nM. The final volume of the enzyme reaction solution was 10 μL. After reacting the mixture of substrate, test material, and enzyme for 30 minutes, the enzyme activity was measured with the Synergy Neo (Biotek) microplate reader at an absorption wavelength of 355 nm and an emission wavelength of 460 nm. IC50 values were determined using 4-parameter logistic curve fit program of GraphPad Prism.

cathepsin L = cathepsin L (Homo sapiens, UniProt P07711); experiment: Inhibitory activity assay against cathepsin L (enzyme assay); details: Z-Phe-Arg-AMC 2 μM, enzyme 3 nM, pH 5.5, 30 minutes
Description: In order to measure the enzyme activity of cathepsin L, a buffer solution (pH 5.5) consisting of 50 mM MES, 2.5 mM DTT, 2.5 mM EDTA, 0.005% Polysorbate 20, and 10% DMSO was prepared. The substrate, the test material, and the enzyme were mixed in the buffer solution in a predetermined concentration. The Z-Phe-Arg-AMC substrate was used in the final concentration of 2 μM. The test material was used in the final concentrations of 10.0 μM, 3.33 μM, 1.11 μM, 0.370 μM, 0.123 μM, 0.0412 μM, 0.0137 μM, 0.00457 μM, 0.00152 μM, and 0.000508 μM, respectively. The cathepsin L enzyme was used in the final concentration of 3 nM. The final volume of the enzyme reaction solution was 10 μL. After reacting the mixture of substrate, test material, and enzyme for 30 minutes, the enzyme activity was measured with the EnVision (Perkin Elmer) microplate reader at an absorption wavelength of 340 nm and an emission wavelength of 460 nm. IC50 values were determined using 4-parameter logistic curve fit program of GraphPad Prism.

cathepsin S = cathepsin S (Homo sapiens, UniProt P25774); experiment: Inhibitory activity assay against cathepsin S (enzyme assay); details: Z-Phe-Arg-AMC 70 μM, enzyme 3 nM, pH 6.5, 45 minutes
Description: In order to measure the enzyme activity of cathepsin S, a buffer solution (pH 6.5) consisting of 50 mM MES, 2.5 mM DTT, 1.0 mM EDTA, 0.001% bovine serum albumin (BSA), and 10% DMSO was prepared. The substrate, the test material, and the enzyme were mixed in the buffer solution in a predetermined concentration. The Z-Phe-Arg-AMC substrate was used in the final concentration of 70 μM. The test material was used in the final concentrations of 10.0 μM, 3.33 μM, 1.11 μM, 0.370 μM, 0.123 μM, 0.0412 μM, 0.0137 μM, 0.00457 μM, 0.00152 μM, and 0.000508 μM, respectively. The cathepsin S enzyme was used in the final concentration of 3 nM. The final volume of the enzyme reaction solution was 10 μL.
After reacting the mixture of substrate, test material, and enzyme for 45 minutes, the enzyme activity was measured with the EnVision (Perkin Elmer) microplate reader at an absorption wavelength of 340 nm and an emission wavelength of 460 nm. IC50 values were determined using 4-parameter logistic curve fit program of GraphPad Prism.

cathepsin L, sequence (P07711 114-333, species assumed): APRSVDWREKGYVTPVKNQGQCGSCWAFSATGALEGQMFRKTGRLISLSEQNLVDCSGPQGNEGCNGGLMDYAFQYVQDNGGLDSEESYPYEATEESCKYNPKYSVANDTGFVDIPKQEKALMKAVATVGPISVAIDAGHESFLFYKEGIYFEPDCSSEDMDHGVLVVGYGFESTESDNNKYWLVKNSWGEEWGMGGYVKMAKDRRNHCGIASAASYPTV
cathepsin S, sequence (P25774 115-331, species assumed): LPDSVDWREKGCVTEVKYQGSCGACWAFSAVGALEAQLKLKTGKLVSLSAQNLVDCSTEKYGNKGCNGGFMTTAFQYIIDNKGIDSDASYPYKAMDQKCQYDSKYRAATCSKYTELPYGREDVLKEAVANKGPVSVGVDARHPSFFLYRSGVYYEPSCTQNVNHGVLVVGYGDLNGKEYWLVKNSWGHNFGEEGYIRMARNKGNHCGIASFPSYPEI

| Compound | IC50 (cathepsin B) | IC50 (cathepsin K) | IC50 (cathepsin L) | IC50 (cathepsin S) |
| --- | --- | --- | --- | --- |
| N#Cc1nccc(C2(NC(=O)OCc3cccc(Br)c3)CCCC2)n1 [Example 3, 3-bromobenzyl (1-(2-cyanopyrimidin-4-yl)cyclopentyl)carbamate] | > 10000 nM | 507 nM | 6390 nM | > 10000 nM |
| N#Cc1nccc(C2(NC(=O)OCc3ccccc3)CCCCC2)n1 [Example 10, Benzyl (1-(2-cyanopyrimidin-4-yl)cyclohexyl)carbamate] | > 10000 nM | 5.6 nM | 1180 nM | 7010 nM |
| N#Cc1nccc(C2(NC(=O)OCc3cccc(Br)c3)CCCCC2)n1 [Example 12, 3-bromobenzyl (1-(2-cyanopyrimidin-4-yl)cyclohexyl)carbamate] | > 10000 nM | 168 nM | 6910 nM | > 10000 nM |
| Cc1cccc(COC(=O)NC2(c3ccnc(C#N)n3)CCCCC2)c1 [Example 13, 3-methylbenzyl (1-(2-cyanopyrimidin-4-yl)cyclohexyl)carbamate] | > 10000 nM | 241 nM | 5080 nM | > 10000 nM |
| N#Cc1nccc(C2(NC(=O)OCc3cccc(C(F)(F)F)c3)CCCCC2)n1 [Example 14, 3-(trifluoromethyl)benzyl (1-(2-cyanopyrimidin-4-yl)cyclohexyl)carbamate] | > 10000 nM | 3700 nM | 9230 nM | > 10000 nM |
| N#Cc1nccc(C2(NC(=O)OCc3cccc(F)c3)CCCCC2)n1 [Example 15, 3-fluorobenzyl (1-(2-cyanopyrimidin-4-yl)cyclohexyl)carbamate] | > 10000 nM | 45.5 nM | 1620 nM | 8600 nM |
| N#Cc1nccc(C2(NC(=O)Nc3ccccc3O)CCCC2)n1 [Example 73, 1-(1-(2-cyanopyrimidin-4-yl)cyclopentyl)-3-(2-hydroxyphenyl)urea] |  | 315 nM |  |  |
| Cn1ncc2cc(NC(=O)NC3(c4ccnc(C#N)n4)CCCC3)ccc21 [Example 76, 1-(1-(2-cyanopyrimidin-4-yl)cyclopentyl)-3-(1-methyl-1H-indazol-5-yl)urea] |  | 573 nM |  |  |
| COc1ccccc1NC(=O)NC1(c2ccnc(C#N)n2)CCCC1 [Example 79, 1-(1-(2-cyanopyrimidin-4-yl)cyclopentyl)-3-(2-methoxyphenyl)urea] |  | 3080 nM |  |  |
| COc1ccc(NC(=O)NC2(c3ccnc(C#N)n3)CCCC2)cc1 [Example 81, 1-(1-(2-cyanopyrimidin-4-yl)cyclopentyl)-3-(4-methoxyphenyl)urea] |  | 162 nM |  |  |
| CC(C)C1CCN(c2ccc(NC(=O)NC3(c4ccnc(C#N)n4)CCCCC3)cc2)CC1 [Example 145, 1-(1-(2-cyanopyrimidin-4-yl)cyclohexyl)-3-(4-(4-isopropylpiperidin-1-yl)phenyl)urea] |  | 76 nM |  |  |
| COC(=O)CCC#Cc1ccc(-c2ccc(NC(=O)NC3(c4ccnc(C#N)n4)CCCCC3)cc2)cc1 [Example 175, methyl 5-(4′-(3-(1-(2-cyanopyrimidin-4-yl)cyclohexyl)ureido)-[1,1′-biphenyl]-4-yl)pent-4-ynoate] |  | 136 nM |  |  |

The remaining compounds from weak to strong by IC50 (cathepsin K), led by results:

| IC50 (cathepsin B) | IC50 (cathepsin K) | IC50 (cathepsin L) | IC50 (cathepsin S) | Compound |
| --- | --- | --- | --- | --- |
|  | 2400 nM |  |  | COCCc1ccc(OCc2ccc(-c3ccc(NC(=O)NC4(c5ccnc(C#N)n5)CCCCC4)cc3)cc2)cc1 [Example 152, 1-(1-(2-cyanopyrimidin-4-yl)cyclohexyl)-3-(4′-((4-(2-methoxyethyl)phenoxy)methyl)-[1,1′-biphenyl]-4-yl)urea] |
| > 10000 nM | 1150 nM | > 10000 nM | > 10000 nM | N#Cc1nccc(C2(NC(=O)OCCc3ccccc3)CCCC2)n1 [Example 4, phenethyl (1-(2-cyanopyrimidin-4-yl)cyclopentyl)carbamate] |
|  | 552 nM |  |  | COc1cccc(CNC(=O)NC2(c3ccnc(C#N)n3)CCCC2)c1 [Example 69, 1-(1-(2-cyanopyrimidin-4-yl)cyclopentyl)-3-(3-methoxybenzyl)urea] |
|  | 547 nM |  |  | N#Cc1nccc(C2(NC(=O)Nc3cccc(O)c3)CCCC2)n1 [Example 71, 1-(1-(2-cyanopyrimidin-4-yl)cyclopentyl)-3-(3-hydroxyphenyl)urea] |
|  | 331 nM |  |  | N#Cc1nccc(C2(NC(=O)Nc3ccc(S(N)(=O)=O)cc3)CCCC2)n1 [Example 72, 4-(3-(1-(2-cyanopyrimidin-4-yl)cyclopentyl)ureido)benzenesulfonamide] |
| > 10000 nM | 277 nM | 4610 nM | > 10000 nM | N#Cc1nccc(C2(NC(=O)OCc3cccc(Cl)c3)CCCCC2)n1 [Example 16, 3-chlorobenzyl (1-(2-cyanopyrimidin-4-yl)cyclohexyl)carbamate] |
|  | 270 nM |  |  | COc1ccc(CNC(=O)NC2(c3ccnc(C#N)n3)CCCC2)cc1 [Example 70, 1-(1-(2-cyanopyrimidin-4-yl)cyclopentyl)-3-(4-methoxybenzyl)urea] |
|  | 157 nM |  |  | COc1cccc(NC(=O)NC2(c3ccnc(C#N)n3)CCCC2)c1 [Example 80, 1-(1-(2-cyanopyrimidin-4-yl)cyclopentyl)-3-(3-methoxyphenyl)urea] |
|  | 147 nM |  |  | N#Cc1nccc(C2(NC(=O)Nc3cccc(-c4ccc(C(F)(F)F)cc4)c3)CCCCC2)n1 [Example 112, 1-(1-(2-cyanopyrimidin-4-yl)cyclohexyl)-3-(4′-(trifluoromethyl)-[1,1′-biphenyl]-3-yl)urea] |
|  | 111 nM |  |  | N#Cc1nccc(C2(NC(=O)Nc3ccc(C(=O)O)cc3)CCCCC2)n1 [Example 135, 4-(3-(1-(2-cyanopyrimidin-4-yl)cyclohexyl)ureido)benzoic acid] |
| > 10000 nM | 56.3 nM | 3550 nM | > 10000 nM | N#Cc1nccc(C2(NC(=O)OCc3cccc(F)c3)CCCC2)n1 [Example 7, 3-fluorobenzyl (1-(2-cyanopyrimidin-4-yl)cyclopentyl)carbamate] |
| > 10000 nM | 21.8 nM | > 10000 nM | > 10000 nM | N#Cc1nccc(C2(NC(=O)OCc3ccc(Br)cc3)CCCC2)n1 [Example 2, 4-bromobenzyl (1-(2-cyanopyrimidin-4-yl)cyclopentyl)carbamate] |
| > 10000 nM | 18.8 nM | > 10000 nM | > 10000 nM | N#Cc1nccc(C2(NC(=O)OCc3ccc(Br)cc3)CCCCC2)n1 [Example 11, 4-bromobenzyl (1-(2-cyanopyrimidin-4-yl)cyclohexyl)carbamate] |
